Test system: zebrafish model showing an anesthetic effect by acute alcohol treatment
Assay: Movement distance of zebrafish model with acute alcohol treatment (total distance, video tracking 20 minutes)
Format: in vivo
Settings: zebrafish larvae 7 dpf, ETOH 2%, omega-3 1.4 mg/L, B2 0.2 mg/L, B3 0.5 mg/L, values converted from FIG. 4
Description: First, each of omega-3 fatty acid (1.4 mg/L), riboflavin (vitamin B2) (0.2 mg/L), and nicotinamide (vitamin B3) (0.5 mg/L) was dissolved in E3 media to prepare a pre-treatment solution. A mixture of omega-3 fatty acid (1.4 mg/L), riboflavin (vitamin B2) (0.2 mg/L), and nicotinamide (vitamin B3) (0.5 mg/L) was dissolved in E3 media to prepare a pre-treatment solution. Each of omega-3 fatty acid (1.4 mg/L), riboflavin (vitamin B2) (0.2 mg/L), and nicotinamide (vitamin B3) (0.5 mg/L) was dissolved in ETOH 2% (in E3 media) to prepare a post-treatment solution. A mixture of omega-3 fatty acid (1.4 mg/L), riboflavin (vitamin B2) (0.2 mg/L), and nicotinamide (vitamin B3) (0.5 mg/L) was dissolved in ETOH 2% (in E3 media) to prepare a post-treatment solution. Zebrafish larvae at 7 days post-fertilization (dpf) were exposed in water to 200 μl/well of the pre-treatment solution for each group (n=20/group) in a 96-well plate for 1 hour. 1 zebrafish larva was in each well. After 1 hour of pre-treatment, the pre-treatment solution was replaced with 200 μl/well of the post-treatment solution for each group, followed by exposure in water. Subsequently, the behaviors of the zebrafish larvae were recorded for 20 minutes. After recording, the cumulative distances for each section (0-5 min, 5-10 min, 10-15 min, and 15-20 min) of the normal control and the experimental groups were analyzed, and the results thereof are shown in FIGS. 1 and 2. […]
Particularly, the behaviors of zebrafish larvae were recorded for 20 minutes, and after recording, the total distance for an experiment time of 20 minutes of each of the normal control and the experimental groups was analyzed, and the results thereof are shown in FIG. 4. […]

Row | Molecule | Average value of total movement distance
1 | omega-3 fatty acid [ETOH + Omega-3 fatty acid] | 399.3 mm
2 | NC(=O)c1cccnc1 [ETOH + B3, nicotinamide] | 77.39 mm
3 | riboflavin [ETOH + B2] | 223.97 mm
